Consider 19 compounds from patent US20040116420A1 (priority 2001, published 2004).

Data set [1] addresses T1, HSV-1 protease (Human herpesvirus 1, UniProt P10210).
T1 construct: 6xHis (N); made in house; host or cells: baculovirus expression system
The experiment in a line: Enzymatic assay for HSV-1 protease (assembly) inhibitor, fluorescence polarization. It counts as biochemical. Conditions: read-out: HSV-1 Enzyme inhibition IC50. In a few lines:
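Fluorescence polarization read-out: after avidin stop, cleavage of a biotinylated DTAF-labelled release-site peptide by recombinant N-His6 HSV-1 protease was compared with no-inhibitor wells. Enzyme and compound were preincubated 30 min, then substrate reacted 60 min, all at room temperature, pH 7.4 citrate buffer with TCEP.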
(Polarisation of emitted light reports the rotation of a fluorescent probe.)

Data set [2] has as its system HSV-1. The experiment in a line: Antiviral activity, HSV-1 in Vero cells, plaque method. It counts as cell-based. As to conditions: Human alphaherpesvirus 1, 20 hours, 90% inhibition of plaque formation. The gist of the method:
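This is a virus-yield read-out. The culture medium was frozen at −80° C and thawed, and the plaques it formed were counted. It came from Vero monolayers infected with 50,000 pfu HSV-1 and then exposed to the compound for 20 h at 37° C. EC90 is the concentration inhibiting 90% of plaque formation relative to the untreated infected control.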

Data set [3] relates to Vero cells. The experiment in a line: Cytotoxicity, Vero cells, Alamar Blue. Conditions: 25 μM, 20 hours. It counts as cell-based. In a few lines: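 Living-cell ratio versus untreated control was read by Alamar Blue absorbance after about 6 h of dye incubation. Before that, Vero cells had received 25 μM test compound in 2% FBS-DMEM for 20 hours at 37 °C under 5% CO2.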
For orientation: Alamar Blue is a resazurin reagent that responds to reducing activity.

Structures are written as SMILES.

T1 sequence (P10210 1-247): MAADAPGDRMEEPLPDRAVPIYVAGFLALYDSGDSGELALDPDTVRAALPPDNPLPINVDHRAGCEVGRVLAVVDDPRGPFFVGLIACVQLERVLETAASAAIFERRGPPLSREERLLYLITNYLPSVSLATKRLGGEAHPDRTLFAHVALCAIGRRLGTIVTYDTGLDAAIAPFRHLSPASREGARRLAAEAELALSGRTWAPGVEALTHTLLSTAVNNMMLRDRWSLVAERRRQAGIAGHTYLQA

For orientation: IC50 means the concentration needed to halve the response being measured. Usually EC90 stands for the point of the concentration-response curve where the effect stands at 90%. A higher EC90 goes with weaker potency. Consider `Cc1c(NC(=O)OC(C)(C)C)ccc2nc(N[C@@H](CC3CCCCC3)C(=O)N(C)CCc3cccnc3)oc(=O)c12` [Compound No.69, (2-{2-Cyclohexyl-1S-[methyl-(2-pyridin-3-yl-ethyl)-carbamoyl]-ethylamino}-5-methyl-4-oxo-4H-benzo[d][1,3]oxazin-6-yl)-carbamic acid tert-butyl ester], for which, in data set [1], the IC50 was found to be 3.6 µM. This compound also gave an EC90 in data set [2] of less than 3.2 µM. Besides, the “Cell viability (% of control)” value in data set [3] was found to be 49.5%.
For `Cc1c(NC(=O)OC(C)(C)C)ccc2nc(N3CCC[C@H]3C(=O)NCCc3ccccn3)oc(=O)c12` [Compound No.89, {5-Methyl-4-oxo-2-[2S-(2-pyridin-2-ylethylcarbamoyl)-pyrrolidin-1-yl]-4H-benzo[d][1,3]oxazin-6-yl}-carbamic acid tert-butyl ester], in that order: 1.4 µM, more than 12.5 µM and 92.6%.
In the same order, the values of `Cc1c(NC(=O)OC(C)(C)C)ccc2nc(N[C@H](C(=O)N(C)Cc3ccccn3)C(C)(C)C)oc(=O)c12` [Compound No.60, {2-[2,2-Dimethyl-1S-(methyl-pyridin-2-ylmethyl-carbamoyl)-propylamino]-5-methyl-4-oxo-4H-benzo[d][1,3]oxazin-6-yl}-carbamic acid tert-butyl ester] are 26.9 µM, 4.7 µM and 89.6%.
For `Cc1c(NC(=O)c2ccc(C(F)(F)F)cc2)ccc2nc(NC(C)(C)C(=O)N(C)CCc3ccccn3)oc(=O)c12` [Compound No.146, N-(5-Methyl-2-{1-methyl-1-[methyl-(2-pyridin-2-yl-ethyl)-carbamoyl]-ethylamino}-4-oxo-4H-benzo[d][1,3]oxazin-6-yl)-4-trifluoromethyl-benzamide], in that order: 1.2 µM, 5.6 µM and 18.0%.
Turning to `Cc1c(NC(=O)OC(C)(C)C)ccc2nc(N[C@@H](CC3CCCCC3)C(=O)NCCc3ccccn3)oc(=O)c12` [Compound No.29, {2-[2-Cyclohexyl-1S-(2-pyridin-2-ylethylcarbamoyl)-ethylamino]-5-methyl-4-oxo-4H-benzo[d][1,3]oxazin-6-yl}-carbamic acid tert-butyl ester], in data set [1], the IC50 was 19.5 µM. In addition, the 90% effect level in data set [2] (EC90) was put at 24.3 µM. For the same compound, in data set [3], the “Cell viability (% of control)” value was determined as 110.0%.
Regarding `Cc1c(NC(=O)OC(C)(C)C)ccc2nc(N[C@H](C(=O)N(C)Cc3ccccn3)C(C)C)oc(=O)c12` [Compound No.61, {5-Methyl-2-[2-methyl-1S-(methyl-pyridin-2-ylmethyl-carbamoyl)-propylamino]-4-oxo-4H-benzo[d][1,3]oxazin-6-yl}-carbamic acid tert-butyl ester], in data set [1], the IC50 was determined as 3.3 µM. The compound also displayed an EC90 in data set [2] of 4.7 µM. Moreover, in data set [3], the “Cell viability (% of control)” value was 107.0%.
Take `Cc1c(NC(=O)OC(C)(C)C)ccc2nc(N[C@H](C(=O)N(C)CCc3ccccn3)C(C)C)oc(=O)c12` [Compound No.45, (5-Methyl-2-{2-methyl-1S-[methyl-(2-pyridin-2-yl-ethyl)-carbamoyl]-propylamino}-4-oxo-4H-benzo[d][1,3]oxazin-6-yl)-carbamic acid tert-butyl ester]: the IC50 in data set [1] was found to be 1.7 µM. In data set [2], this compound yielded an EC90 of 6.6 µM. Further, the “Cell viability (% of control)” value in data set [3] amounted to 107.0%.
For `Cc1c(NC(=O)OC(C)(C)C)ccc2nc(N[C@@H](CCc3ccccc3)C(=O)N(C)CCc3ccncc3)oc(=O)c12` [Compound No.56, (5-Methyl-2-{1S-[methyl-(2-pyridin-4-yl-ethyl)-carbamoyl]-3-phenyl-propylamino}-4-oxo-4H-benzo[d][1,3]oxazin-6-yl)-carbamic acid tert-butyl ester], in that order: 3.2 µM, 3.7 µM and 77.9%.
With `CCc1ccc(C(=O)Nc2ccc3nc(NC(C)(C)C(=O)N(C)CCc4ccccn4)oc(=O)c3c2C)cc1` [Compound No.187, 4-Ethyl-N-(5-methyl-2-{1-methyl-1-[methyl-(2-pyridin-2-yl-ethyl)-carbamoyl]-ethylamino}-4-oxo-4H-benzo[d][1,3]oxazin-6-yl)-benzamide], the IC50 in data set [1] turned out to be 1.1 µM. The EC90 in data set [2] came out at 4.5 µM. In addition, the “Cell viability (% of control)” value in data set [3] was 65.8%.
For `COC(=O)c1ccc(C(=O)Nc2ccc3nc(NC(C)(C)C(=O)N(C)CCc4ccccn4)oc(=O)c3c2C)cc1` [Compound No.150, N-(5-Methyl-2-{1-methyl-1-[methyl-(2-pyridin-2-yl-ethyl)-carbamoyl]-ethylamino}-4-oxo-4H-benzo[d][1,3]oxazin-6-yl)-tetraphthalic acid methyl ester], in that order: 1.4 µM, 6.1 µM and 81.5%.
In the same order, the values of `Cc1c(NC(=O)OC(C)(C)C)ccc2nc(N[C@@H](CCc3ccccc3)C(=O)NCc3ccncc3)oc(=O)c12` [Compound No.41, (5-Methyl-4-oxo-2-{3-phenyl-1S-[(pyridin-4-ylmethyl)-carbamoyl]-propylamino}-4H-benzo[d][1,3]oxazin-6-yl)-carbamic acid tert-butyl ester] are 5.6 µM, more than 25 µM and 101.0%.
In the case of `Cc1c(NC(=O)OC(C)(C)C)ccc2nc(N[C@@H](CC3CCCCC3)C(=O)N(C)CCc3ccncc3)oc(=O)c12` [Compound No.55, (2-{2-Cyclohexyl-1S-[methyl-(2-pyridin-4-yl-ethyl)-carbamoyl]-ethylamino}-5-methyl-4-oxo-4H-benzo[d][1,3]oxazin-6-yl)-carbamic acid tert-butyl ester], the IC50 in data set [1] came to 7.4 µM. Besides, the EC90 in data set [2] amounted to 5.9 µM. The “Cell viability (% of control)” value in data set [3] turned out to be 43.8%.
`Cc1c(NC(=O)OC(C)(C)C)ccc2nc(N[C@H](C(=O)N(C)CCc3ccncc3)C(C)C)oc(=O)c12` [Compound No.53, (5-Methyl-2-{2-methyl-1S-[methyl-(2-pyridin-4-yl-ethyl)-carbamoyl]-propylamino}-4-oxo-4H-benzo[d][1,3]oxazin-6-yl)-carbamic acid tert-butyl ester]: in data set [1], the IC50 was 2.7 µM. In data set [2], this compound showed an EC90 of 6.1 µM. For the same compound, in data set [3], the “Cell viability (% of control)” value came to 106.0%.
In the same order, the values of `Cc1c(NC(=O)OC(C)(C)C)ccc2nc(N3Cc4ccccc4C[C@H]3C(=O)N(C)CCc3ccccn3)oc(=O)c12` [Compound No.99, (5-Methyl-2-{3S-[methyl-(2-pyridin-2-yl-ethyl)-carbamoyl]-3,4-dihydro-1H-isoquinolin-2-yl}-4-oxo-4H-benzo[d][1,3]oxazin-6-yl)-carbamic acid tert-butyl ester] are 5.2 µM, 10.1 µM and 53.2%.
For `Cc1c(NC(=O)OC(C)(C)C)ccc2nc(N3C[C@H](OCc4ccccc4)C[C@H]3C(=O)N(C)CCc3ccccn3)oc(=O)c12` [Compound No.114, (2-{4R-Benzyloxy-2S-[methyl-(2-pyridin-2-yl-ethyl)-carbamoyl]-pyrrolidin-1-yl}-5-methyl-4-oxo-4H-benzo[d][1,3]oxazin-6-yl)-carbamic acid tert-butyl ester], in that order: more than 10 µM, 5.9 µM and 76.5%.
In the same order, the values of `Cc1c(NC(=O)OC(C)(C)C)ccc2nc(N3C[C@H](OCc4ccccc4)C[C@H]3C(=O)NCc3ccccn3)oc(=O)c12` [Compound No.109, (2-{4R-Benzyloxy-2S-[(pyridin-2-ylmethyl)-carbamoyl]-pyrrolidin-1-yl}-5-methyl-4-oxo-4H-benzo[d][1,3]oxazin-6-yl)-carbamic acid tert-butyl ester] are 1.4 µM, 8.8 µM and 58.5%.
`Cc1c(NC(=O)OC(C)(C)C)ccc2nc(N3CCCC[C@H]3C(=O)NCc3cccnc3)oc(=O)c12` [Compound No.103, (5-Methyl-4-oxo-2-{2S-[(pyridin-3-ylmethyl)-carbamoyl]-piperidin-1-yl}-4H-benzo[d][1,3]oxazin-6-yl)-carbamic acid tert-butyl ester]: the IC50 in data set [1] worked out at 2.6 µM. For the same compound, the EC90 in data set [2] is more than 12.5 µM. Besides, in data set [3], the “Cell viability (% of control)” value came out at 68.9%.
In the same order, the values of `Cc1c(NC(=O)c2ccccc2OC(F)(F)F)ccc2nc(NC(C)(C)C(=O)N(C)CCc3ccccn3)oc(=O)c12` [Compound No.182, N-(5-Methyl-2-{1-methyl-1-[methyl-(2-pyridin-2-yl-ethyl)-carbamoyl]-ethylamino}-4-oxo-4H-benzo[d][1,3]oxazin-6-yl)-2-trifluoromethoxy-benzamide] are 4.9 µM, more than 12.5 µM and 95.2%.
For `Cc1c(NC(=O)c2ccc(OC(F)(F)F)cc2)ccc2nc(NC(C)(C)C(=O)N(C)CCc3ccccn3)oc(=O)c12` [Compound No.173, N-(5-Methyl-2-{1-methyl-1-[methyl-(2-pyridin-2-yl-ethyl)-carbamoyl]-ethylamino}-4-oxo-4H-benzo[d][1,3]oxazin-6-yl)-4-trifluoromethoxy-benzamide], in that order: 1.4 µM, 7.1 µM and 26.1%.
